Consider 26 compounds from patent US8658661B2, “Oxadiazole inhibitors of leukotriene production” (Boehringer Ingelheim International GmbH, priority 2010, dated 2014).

Assay [1] concerns the target T1, recombinant human FLAP protein (Homo sapiens, UniProt P20292).
T1 construct: made in house; host or cells: Sf9 insect cells (100,000×g membrane pellet used)
T1 sequence (P20292 1-161): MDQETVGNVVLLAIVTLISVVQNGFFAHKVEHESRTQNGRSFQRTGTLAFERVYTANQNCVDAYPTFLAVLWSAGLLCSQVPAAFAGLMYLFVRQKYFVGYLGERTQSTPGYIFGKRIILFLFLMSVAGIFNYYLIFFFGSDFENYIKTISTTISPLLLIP
The experiment in a line: FLAP binding assay (SPA, displacement of [125I]L-691,831). As to conditions: membranes of sf9 cells expressing recombinant human FLAP; [125I]L-691,831 probe; read-out: FLAP binding IC50. In a few lines: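 Membranes from sf9 cells expressing human FLAP in pH 7.5 Tris buffer (MgCl2, EDTA, PMSF). Non-specific binding defined with 10 μM cold L-691,831.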
A general note: Loss of bound radioactivity is the signal in a displacement assay; it reports binding, not function.

For assay [2], the system named is synthesis of LTB4 in human whole blood. The experiment in a line: Human whole blood assay (inhibition of LTB4 synthesis, calcimycin stimulated). Particulars: heparinized human whole blood, calcimycin 20 μM, plasma LTB4. The assay is classed as cell-based. The procedure, abridged: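 LTB4 levels in plasma were measured by antibody-based HTRF after heparinized human whole blood, pretreated with compound (15 min, 37° C), was challenged with 20 μM calcimycin for 30 min at 37° C.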

Broadly, the IC50 is the concentration that inhibits the measured activity by half.

In the case of `CC(C)C(C)(c1ccc(-c2cnc(N)nc2)cc1)c1noc(-c2ccnnc2)n1` (stereo not shown) [Example 147, 5-(4-{3-methyl-2-[5-(pyridazin-4-yl)-1,2,4-oxadiazol-3-yl]butan-2-yl}phenyl)pyrimidin-2-amine], the IC50 in assay [1] worked out at 0.0027 µM; in assay [2], 0.086 µM.

Turning to `CC(C)C(C)(c1ccc(-c2cnc(N)nc2)cc1)c1noc(-c2cccc(S(C)(=O)=O)c2)n1` (stereo not shown) [Example 148, 5-[4-(3-methyl-2-{5-[3-(methylsulfonyl)phenyl]-1,2,4-oxadiazol-3-yl}butan-2-yl)phenyl]pyrimidin-2-amine], the values for the IC50 in assay [1] and in assay [2] were 0.014 µM and 0.61 µM, respectively.

As for `CC(C)C(C)(c1ccc(-c2cnc(N)nc2)cc1)c1noc(C2CCN(C)CC2)n1` (stereo not shown) [Example 150, 5-(4-{3-methyl-2-[5-(1-methylpiperidin-4-yl)-1,2,4-oxadiazol-3-yl]butan-2-yl}phenyl)pyrimidin-2-amine], the IC50 in assay [1] was found to be 0.33 µM; in assay [2] it was 1.8 µM.

On to `CC(C)C(C)(c1ccc(-c2cnc(N)nc2)cc1)c1noc(-c2ccc(N)nc2)n1` (stereo not shown) [Example 151, 5-(4-{2-[5-(6-aminopyridin-3-yl)-1,2,4-oxadiazol-3-yl]-3-methylbutan-2-yl}phenyl)pyrimidin-2-amine], for which the IC50 in assay [1] was 0.0023 µM; in assay [2], 0.1 µM.

Turning to `Cc1ncc(-c2nc(C(C)(c3ccc(-c4cnc(N)nc4)cc3)C(C)C)no2)cn1` (stereo not shown) [Example 152, 5-(4-{3-methyl-2-[5-(2-methylpyrimidin-5-yl)-1,2,4-oxadiazol-3-yl]butan-2-yl}phenyl)pyrimidin-2-amine], the IC50 in assay [1] is 0.0033 µM; in assay [2] it was 0.27 µM.

For `Cc1nc(C)c(-c2nc(C(C)(c3ccc(-c4cnc(N)nc4)cc3)C(C)C)no2)s1` (stereo not shown) [Example 153, 5-(4-{2-[5-(2,4-dimethyl-1,3-thiazol-5-yl)-1,2,4-oxadiazol-3-yl]-3-methylbutan-2-yl}phenyl)pyrimidin-2-amine], the figures for the IC50 in assay [1] and in assay [2] were 0.0046 µM and 0.18 µM, respectively.

As for `COc1ncc(-c2nc(C(C)(c3ccc(-c4cnc(N)nc4)cc3)C(C)C)no2)cn1` (stereo not shown) [Example 155, 5-(4-{2-[5-(2-methoxypyrimidin-5-yl)-1,2,4-oxadiazol-3-yl]-3-methylbutan-2-yl}phenyl)pyrimidin-2-amine], the IC50 was 0.0019 µM in assay [1] and 0.081 µM in assay [2].

For `Cc1ccc(-c2nc(C(C)(c3ccc(-c4cnc(N)nc4)cc3)C(C)C)no2)c(O)n1` (stereo not shown) [Example 157, 3-(3-{2-[4-(2-aminopyrimidin-5-yl)phenyl]-3-methylbutan-2-yl}-1,2,4-oxadiazol-5-yl)-6-methylpyridin-2-ol], the IC50 is 0.0033 µM in assay [1] and 0.76 µM in assay [2].

In the case of `COCCn1cc(-c2nc(C(C)(c3ccc(-c4cnc(N)nc4)cc3)C(C)C)no2)cn1` (stereo not shown) [Example 158, 5-[4-(2-{5-[1-(2-methoxyethyl)-1H-pyrazol-4-yl]-1,2,4-oxadiazol-3-yl}-3-methylbutan-2-yl)phenyl]pyrimidin-2-amine], the IC50 in assay [1] is 0.0034 µM; in assay [2], 0.055 µM.

As for `CC(C)C(C)(c1ccc(-c2cnc(N)nc2)cc1)c1noc(-c2cnn(CC(C)(C)O)c2)n1` (stereo not shown) [Example 159, 1-[4-(3-{2-[4-(2-aminopyrimidin-5-yl)phenyl]-3-methylbutan-2-yl}-1,2,4-oxadiazol-5-yl)-1H-pyrazol-1-yl]-2-methylpropan-2-ol], the IC50 in assay [1] was determined as 0.0046 µM; in assay [2], 0.083 µM.

On to `CC(C)C(C)(c1ccc(-c2cnc(N)nc2)cc1)c1noc(-c2cnn(C(C)(C)C(=O)O)c2)n1` (stereo not shown) [Example 160, 2-[4-(3-{2-[4-(2-aminopyrimidin-5-yl)phenyl]-3-methylbutan-2-yl}-1,2,4-oxadiazol-5-yl)-1H-pyrazol-1-yl]-2-methylpropanoic acid], for which the IC50 in assay [1] was 0.009 µM; in assay [2] it was above 5 µM.

`CC(C)C(C)(c1ccc(-c2cnc(N)nc2)cc1)c1noc(-c2cnn(C3COC3)c2)n1` (stereo not shown) [Example 161, 5-[4-(3-methyl-2-{5-[1-(oxetan-3-yl)-1H-pyrazol-4-yl]-1,2,4-oxadiazol-3-yl}butan-2-yl)phenyl]pyrimidin-2-amine]: the IC50 in assay [1] amounted to 0.002 µM; in assay [2], 0.036 µM.

As for `COCCNc1cnc(-c2nc(C(C)(c3ccc(-c4cnc(N)nc4)cc3)C(C)C)no2)cn1` (stereo not shown) [Example 162, 5-{4-[2-(5-{5-[(2-methoxyethyl)amino]pyrazin-2-yl}-1,2,4-oxadiazol-3-yl)-3-methylbutan-2-yl]phenyl}pyrimidin-2-amine], the IC50 in assay [1] was determined as 0.0023 µM; in assay [2] it was 0.041 µM.

`CC(C)C(C)(c1ccc(-c2cnc(N)nc2)cc1)c1noc(-c2cnc(N3CCN(C)CC3)cn2)n1` (stereo not shown) [Example 163, 5-[4-(3-methyl-2-{5-[5-(4-methylpiperazin-1-yl)pyrazin-2-yl]-1,2,4-oxadiazol-3-yl}butan-2-yl)phenyl]pyrimidin-2-amine]: the IC50 in assay [1] amounted to 0.00074 µM; in assay [2], 0.03 µM.

For `CC(C)C(C)(c1ccc(-c2cnc(N)nc2)cc1)c1noc(-c2cnn(CC(C)(C)C(=O)O)c2)n1` (stereo not shown) [Example 164, 3-[4-(3-{2-[4-(2-aminopyrimidin-5-yl)phenyl]-3-methylbutan-2-yl}-1,2,4-oxadiazol-5-yl)-1H-pyrazol-1-yl]-2,2-dimethylpropanoic acid], the IC50 in assay [1] was 0.0014 µM; in assay [2], 2.7 µM.

For the compound `CC(C)C(C)(c1ccc(-c2cnc(N)nc2)cc1)c1noc(-c2cccc(=O)n2C)n1` (stereo not shown) [Example 165, 6-(3-{2-[4-(2-aminopyrimidin-5-yl)phenyl]-3-methylbutan-2-yl}-1,2,4-oxadiazol-5-yl)-1-methylpyridin-2(1H)-one], the IC50 in assay [1] came to 0.0021 µM; in assay [2], 0.089 µM.

Turning to `CC(C)C(C)(c1ccc(-c2cnc(N)nc2)cc1)c1noc(C2CCCC(=O)N2C)n1` (stereo not shown) [Example 166, 6-(3-{2-[4-(2-aminopyrimidin-5-yl)phenyl]-3-methylbutan-2-yl}-1,2,4-oxadiazol-5-yl)-1-methylpiperidin-2-one], the IC50 in assay [1] was 0.026 µM; in assay [2], 2.4 µM.

Take `CC(C)C(C)(c1ccc(-c2cnc(N)nc2)cc1)c1noc(C2CCCC(=O)N2)n1` (stereo not shown) [Example 167, 6-(3-{2-[4-(2-aminopyrimidin-5-yl)phenyl]-3-methylbutan-2-yl}-1,2,4-oxadiazol-5-yl)piperidin-2-one]: the IC50 in assay [1] was found to be 0.046 µM; in assay [2], 4.3 µM.

Consider `CC(C)C(C)(c1ccc(-c2cnc(N)nc2)cc1)c1noc(N2CCS(=O)(=O)CC2)n1` (stereo not shown) [Example 168, 5-(4-{1-[5-(1,1-Dioxo-1lambda6-thiomorpholin-4-yl)-[1,2,4]oxadiazol-3-yl]-1,2-dimethyl-propyl}-phenyl)-pyrimidin-2-ylamine], for which the IC50 was 0.021 µM in assay [1] and 0.39 µM in assay [2].

Turning to `CC(=O)N1CCN(c2nc(C(C)(c3ccc(-c4cnc(N)nc4)cc3)C(C)C)no2)CC1` (stereo not shown) [Example 169, 1-[4-(3-{1-[4-(2-Amino-pyrimidin-5-yl)-phenyl]-1,2-dimethyl-propyl}-[1,2,4]oxadiazol-5-yl)-piperazin-1-yl]-ethanone], the values for the IC50 in assay [1] and in assay [2] were 0.014 µM and 0.37 µM, respectively.

As for `CC(C)C(C)(c1ccc(-c2cnc(N)nc2)cc1)c1noc(N2CCN(S(C)(=O)=O)CC2)n1` (stereo not shown) [Example 170, 5-(4-{1-[5-(4-Methanesulfonyl-piperazin-1-yl)-[1,2,4]oxadiazol-3-yl]-1,2-dimethyl-propyl}-phenyl)-pyrimidin-2-ylamine], the IC50 came out at 0.014 µM in assay [1] and 0.31 µM in assay [2].

For `CC(C)C(C)(c1ccc(-c2cnc(N)nc2)cc1)c1noc(NCCN(C)C)n1` (stereo not shown) [Example 171, N-(3-{1-[4-(2-Amino-pyrimidin-5-yl)-phenyl]-1,2-dimethyl-propyl}-[1,2,4]oxadiazol-5-yl)-N′,N′-dimethyl-ethane-1,2-diamine], the IC50 is 0.22 µM in assay [1] and 1.9 µM in assay [2].

For the compound `CN(C)C(=O)Cn1cc(-c2nc([C@@](C)(c3ccc(-c4ccc(N)nc4)cc3)C3CC3)no2)cn1` [Example 172, 2-[4-(3-{(R)-1-[4-(6-Amino-pyridin-3-yl)-phenyl]-1-cyclopropyl-ethyl}-[1,2,4]oxadiazol-5-yl)-pyrazol-1-yl]-N,N-dimethyl-acetamide], the IC50 in assay [1] is 0.0011 µM; in assay [2], 0.066 µM.

Take `CC(C)(O)Cn1cc(-c2nc([C@@](C)(c3ccc(-c4ccc(N)nc4)cc3)C3CC3)no2)cn1` [Example 173, 1-[4-(3-{(R)-1-[4-(6-Amino-pyridin-3-yl)-phenyl]-1-cyclopropyl-ethyl}-[1,2,4]oxadiazol-5-yl)-pyrazol-1-yl]-2-methyl-propan-2-ol]: the figures for the IC50 in assay [1] and in assay [2] were 0.0024 µM and 0.031 µM, respectively.

As to `CC(C)(O)Cn1cc(-c2nc([C@@](C)(c3ccc(-c4cnc(N)nc4)cc3)C3CC3)no2)cn1` [Example 174, 1-[4-(3-{(R)-1-[4-(2-Amino-pyrimidin-5-yl)-phenyl]-1-cyclopropyl-ethyl}-[1,2,4]oxadiazol-5-yl)-pyrazol-1-yl]-2-methyl-propan-2-ol], the IC50 was found to be 0.0012 µM in assay [1] and 0.019 µM in assay [2].

For `CC(C)(O)Cn1cc(-c2nc([C@@](C)(c3ccc(-c4cnc(N)cn4)cc3)C3CC3)no2)cn1` [Example 175, 1-[4-(3-{(R)-1-[4-(5-Amino-pyrazin-2-yl)-phenyl]-1-cyclopropyl-ethyl}-[1,2,4]oxadiazol-5-yl)-pyrazol-1-yl]-2-methyl-propan-2-ol], the IC50 is 0.0022 µM in assay [1] and 0.039 µM in assay [2].
